Results reported in US11613546B2, “Substituted pyridotriazine compounds and uses thereof” (Gilead Sciences, Inc., priority 2021, dated 2023).
Where two headings read alike, the source gives them in different places.

Tests used:
Assay type in all cases: cell-based
HIV-1 (IIIB) = experiment: Antiviral assay in MT-4 cells; settings: HIV-1 IIIB infected MT-4 cells, 5 days, Cell Titer Glo, read-out: MT4 EC50
Outline: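 MT-4 cells infected with a 1:250 dilution of HIV-1 IIIB stock were incubated with serially diluted (1:3) compound for 5 days at 37 °C. Viability read by Cell Titer Glo luminescence; EC50 is the concentration giving 50% decrease in signal, from sigmoidal dose-response fits.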

MT-4 cells = experiment: Cytotoxicity assay in MT-4 cells
Outline: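 Uninfected MT-4 cells were incubated with 1:3 serially diluted compound in RPMI/10% FBS for 5 days at 37° C. Viability was read by CellTiter-Glo luminescence, with 10 μM puromycin as the baseline cytotoxicity control. Values are the concentration giving a 50% decrease in luminescence, from sigmoidal dose-response fits.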

pLai RLuc reporter virus = experiment: HIV MT-4 serum shift antiviral reporter assay
Outline: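 MT-4 cells pre-infected with pLai RLuc virus for 2 h at 37 °C, then incubated 72 h at 37 °C with compound in medium (RPMI, 10% FBS) with or without 50% human serum; Renilla luminescence read. EC50 from sigmoidal fit; serum shift = EC50(HS/CCM)/EC50(CCM).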

[1] = uninfected MT-4 cells, 5 days, Cell Titer Glo, read-out: CC50
[2] = read-out: RLUC 50% HS, HS/CCM: 50% human serum, 72 h, Renilla Glo
[3] = read-out: RLUC CCM, cell culture media (RPMI, 10% FBS), 72 h, Renilla Glo
[4] = HS/CCM: 50% human serum, 72 h, Renilla Glo, read-out: RLUC 50% HS
[5] = cell culture media (RPMI, 10% FBS), 72 h, Renilla Glo, read-out: RLUC CCM
[6] = Human immunodeficiency virus 1, IIIB, MT4, 120 h
[7] = Human immunodeficiency virus 1, 72 h, read-out: RLUC 50% HS (nM), HS/CCM: 50% human serum, 72 h, Renilla Glo
[8] = Human immunodeficiency virus 1, 72 h, read-out: RLUC CCM (nM), cell culture media (RPMI, 10% FBS), 72 h, Renilla Glo

SMILES | EC50 (HIV-1 (IIIB)) [nM] | CC50 (MT-4 cells; [1]) [µM] | EC50 (pLai RLuc reporter virus; [2]) [nM] | EC50 (pLai RLuc reporter virus; [3]) [nM] | EC50 (pLai RLuc reporter virus; [4]) [nM] | EC50 (pLai RLuc reporter virus; [5]) [nM] | EC50 (HIV-1 (IIIB); [6]) [nM] | EC50 (pLai RLuc reporter virus; [7]) [nM] | EC50 (pLai RLuc reporter virus; [8]) [nM] | CC50 (MT-4 cells) [µM]
C[C@@H]1CCC[C@H](C)N2CN1n1cc(C(=O)NCc3c(F)cc(F)cc3F)c(=O)c(O)c1C2=O [Example C14, (1R,2S,6R)-9-hydroxy-2,6-dimethyl-8,10-dioxo-N-(2,4,6-trifluorobenzyl)-3,4,5,6,8,10-hexahydro-2H-1,7-methanopyrido[1,2-b][1,2,5]triazecine-11-carboxamide] | 2 | 8.06 | 31.1 | 0.71 | – | – | – | – | – | –
C[C@H]1/C=C\C[C@H](C)N2CN1C(=O)c1c(O)c(=O)c(C(=O)NCc3c(F)cc(F)cc3F)cn12 [Example C19, (1R,2S,6S,Z)-9-hydroxy-2,6-dimethyl-8,10-dioxo-N-(2,4,6-trifluorobenzyl)-3,6,8,10-tetrahydro-2H-1,7-methanopyrido[1,2-b][1,2,5]triazecine-11-carboxamide] | 1.1 | 10.2 | – | – | 60.3 | 0.41 | – | – | – | –
C[C@@H]1CCC[C@H](C)N2CN1n1cc(C(=O)NCc3c(F)cc(F)cc3F)c(=O)c(O)c1C2=O [Example C21, (1R,2S,6S)-9-hydroxy-2,6-dimethyl-8,10-dioxo-N-(2,4,6-trifluorobenzyl)-3,4,5,6,8,10-hexahydro-2H-1,7-methanopyrido[1,2-b][1,2,5]triazecine-11-carboxamide] | 1.7 | 11.7 | 98.1 | 0.23 | – | – | – | – | – | –
C[C@H]1CCC[C@H](C)N2CN1C(=O)c1c(O)c(=O)c(C(=O)NCc3c(F)cc(F)cc3F)cn12 [Example C23, (1S,2S,6S)-9-hydroxy-2,6-dimethyl-8,10-dioxo-N-(2,4,6-trifluorobenzyl)-3,4,5,6,8,10-hexahydro-2H-1,7-methanopyrido[1,2-b][1,2,5]triazecine-11-carboxamide] | – | 50 | – | – | – | – | 2.5 | 14.5 | 0.29 | –
C[C@H]1C=C[C@H](C)N2CN1C(=O)c1c(O)c(=O)c(C(=O)NCc3c(F)cc(F)cc3F)cn12 [Example C26, (1R,2S,5S)-8-hydroxy-2,5-dimethyl-7,9-dioxo-N-(2,4,6-trifluorobenzyl)-2,5,7,9-tetrahydro-1,6-methanopyrido[1,2-b][1,2,5]triazonine-10-carboxamide] | 2.4 | 28.1 | 349 | 0.63 | – | – | – | – | – | –
C[C@H]1CC[C@H](C)N2CN1C(=O)c1c(O)c(=O)c(C(=O)NCc3c(F)cc(F)cc3F)cn12 [Example C28, (1S,2S,5S)-8-hydroxy-2,5-dimethyl-7,9-dioxo-N-(2,4,6-trifluorobenzyl)-2,3,4,5,7,9-hexahydro-1,6-methanopyrido[1,2-b][1,2,5]triazonine-10-carboxamide] | 1.4 | 6.87 | 319 | 0.33 | – | – | – | – | – | –
C[C@@H]1CC(F)(F)[C@H](C)N2CN1n1cc(C(=O)NCc3c(F)cc(F)cc3F)c(=O)c(O)c1C2=O [Example C35, (1S,2R,5S)-4,4-difluoro-8-hydroxy-2,5-dimethyl-7,9-dioxo-N-(2,4,6-trifluorobenzyl)-2,3,4,5,7,9-hexahydro-1,6-methanopyrido[1,2-b][1,2,5]triazonine-10-carboxamide] | 1.6 | 29.9 | – | – | 188 | 1.3 | – | – | – | –
C[C@H]1CCCCN2CN1n1cc(C(=O)NCc3ccc(F)cc3F)c(=O)c(O)c1C2=O [Example C40, (1S,2S)—N-(2,4-difluorobenzyl)-9-hydroxy-2-methyl-8,10-dioxo-3,4,5,6,8,10-hexahydro-2H-1,7-methanopyrido[1,2-b][1,2,5]triazecine-11-carboxamide] | 2.1 | 16 | – | – | 139 | 1.3 | – | – | – | –
C[C@H]1C/C=C\CN2CN1n1cc(C(=O)NCc3ccc(F)cc3F)c(=O)c(O)c1C2=O [Example C41, (1S,2S,Z)—N-(2,4-difluorobenzyl)-9-hydroxy-2-methyl-8,10-dioxo-3,6,8,10-tetrahydro-2H-1,7-methanopyrido[1,2-b][1,2,5]triazecine-11-carboxamide] | 1.2 | 14.2 | 68.6 | 0.71 | – | – | – | – | – | –
C[C@H]1C/C=C\CN2CN1n1cc(C(=O)NCc3ccc(F)cc3F)c(=O)c(O)c1C2=O [Example C43, (1R,2S,Z)—N-(2,4-difluorobenzyl)-9-hydroxy-2-methyl-8,10-dioxo-3,6,8,10-tetrahydro-2H-1,7-methanopyrido[1,2-b][1,2,5]triazecine-11-carboxamide] | 5.3 | 6.11 | 544 | 1.68 | – | – | – | – | – | –
CO[C@@H]1C=C[C@H](C)N2CN1n1cc(C(=O)NCc3c(F)cc(F)cc3F)c(=O)c(O)c1C2=O [Example C46, (1R,2R,5S)-8-hydroxy-2-methoxy-5-methyl-7,9-dioxo-N-(2,4,6-trifluorobenzyl)-2,5,7,9-tetrahydro-1,6-methanopyrido[1,2-b][1,2,5]triazonine-10-carboxamide] | 1.6 | 27 | – | – | 468 | 0.44 | – | – | – | –
C[C@@H]1C=C[C@H](CF)N2CN1n1cc(C(=O)NCc3ccc(F)cc3F)c(=O)c(O)c1C2=O [Example C49a, (1S,10R,13R)—N-[(2,4-difluorophenyl)methyl]-10-(fluoromethyl)-6-hydroxy-13-methyl-5,8-dioxo-1,2,9-triazatricyclo[7.4.1.02,7]tetradeca-3,6,11-triene-4-carboxamide] | 1.2 | 11.3 | – | – | 140 | 0.64 | – | – | – | –
C[C@@H]1CC[C@H](CF)N2CN1n1cc(C(=O)NCc3ccc(F)cc3F)c(=O)c(O)c1C2=O [Example C49b, (1S,10R,13R)—N-[(2,4-difluorophenyl)methyl]-10-(fluoromethyl)-6-hydroxy-13-methyl-5,8-dioxo-1,2,9-triazatricyclo[7.4.1.02,7]tetradeca-3,6-diene-4-carboxamide] | 1.9 | 8.93 | – | – | 462 | 1 | – | – | – | –
C[C@@H]1CC[C@H](CF)N2CN1n1cc(C(=O)NCc3c(F)cc(F)cc3F)c(=O)c(O)c1C2=O [Example C51, (1S,2R,5R)-5-(fluoromethyl)-8-hydroxy-2-methyl-7,9-dioxo-N-(2,4,6-trifluorobenzyl)-2,3,4,5,7,9-hexahydro-1,6-methanopyrido[1,2-b][1,2,5]triazonine-10-carboxamide] | 1.3 | – | – | – | 408 | 2.3 | – | – | – | 9.81
C[C@@H]1c2nc[nH]c2[C@H](C)N2CN1n1cc(C(=O)NCc3ccc(F)cc3F)c(=O)c(O)c1C2=O [Example C60, (4R,5S,13S)—N-(2,4-difluorobenzyl)-10-hydroxy-4,13-dimethyl-9,11-dioxo-4,9,11,13-tetrahydro-1H-5,12-methanoimidazo[4,5-g]pyrido[1,2-b][1,2,5]triazonine-8-carboxamide] | – | 50 | – | – | – | – | 95.7 | 104 | 42.6 | –
CO[C@@H]1[C@H](OC)[C@H](C)N2CN([C@@H]1C)n1cc(C(=O)NCc3c(F)cc(F)cc3F)c(=O)c(O)c1C2=O [Example C61, (1S,2R,3S,4R,5S)-8-hydroxy-3,4-dimethoxy-2,5-dimethyl-7,9-dioxo-N-(2,4,6-trifluorobenzyl)-2,3,4,5,7,9-hexahydro-1,6-methanopyrido[1,2-b][1,2,5]triazonine-10-carboxamide] | – | 50 | – | – | – | – | 2.8 | 1.6 | 0.76 | –
C[C@H]1CC[C@H](C)N2CN1C(=O)c1c(O)c(=O)c(C(=O)NCc3c(F)cc(F)cc3F)cn12 [Example C66, (1R,2S,5S)-8-hydroxy-2,5-dimethyl-7,9-dioxo-N-(2,4,6-trifluorobenzyl)-2,3,4,5,7,9-hexahydro-1,6-methanopyrido[1,2-b][1,2,5]triazonine-10-carboxamide] | 1.4 | 10.4 | 179 | 0.5 | – | – | – | – | – | –
C[C@@H]1C=C[C@@H](C)N2CN1C(=O)c1c(O)c(=O)c(C(=O)NCc3ccc(F)cc3F)cn12 [Example C68, (1R,2R,5R)—N-(2,4-difluorobenzyl)-8-hydroxy-2,5-dimethyl-7,9-dioxo-2,5,7,9-tetrahydro-1,6-methanopyrido[1,2-b][1,2,5]triazonine-10-carboxamide] | – | 17.3 | 291 | – | – | – | 1.6 | – | 0.82 | –
C[C@@H]1C=C[C@@H](C)N2CN1C(=O)c1c(O)c(=O)c(C(=O)NCc3ccc(F)cc3F)cn12 [Example C69, (1S,2R,5R)—N-(2,4-difluorobenzyl)-8-hydroxy-2,5-dimethyl-7,9-dioxo-2,5,7,9-tetrahydro-1,6-methanopyrido[1,2-b][1,2,5]triazonine-10-carboxamide] | 1.5 | 38.9 | 146 | 0.55 | – | – | – | – | – | –
